Results on 26 molecules are retold here after patent publication US20140243335A1, “SUBSTITUTED HYDOXAMIC ACIDS AND USES THEREOF” (Millennium Pharmaceuticals, Inc., priority 2010, published 2014).

A word on the inhibition: it is the drop in the measured response relative to a control, in per cent.

The test addresses T1, purified human HDAC6 (Homo sapiens, UniProt Q9UBN7).
T1 construct: purchased BPS Bioscience 5006
T1 sequence (Q9UBN7 1-1215): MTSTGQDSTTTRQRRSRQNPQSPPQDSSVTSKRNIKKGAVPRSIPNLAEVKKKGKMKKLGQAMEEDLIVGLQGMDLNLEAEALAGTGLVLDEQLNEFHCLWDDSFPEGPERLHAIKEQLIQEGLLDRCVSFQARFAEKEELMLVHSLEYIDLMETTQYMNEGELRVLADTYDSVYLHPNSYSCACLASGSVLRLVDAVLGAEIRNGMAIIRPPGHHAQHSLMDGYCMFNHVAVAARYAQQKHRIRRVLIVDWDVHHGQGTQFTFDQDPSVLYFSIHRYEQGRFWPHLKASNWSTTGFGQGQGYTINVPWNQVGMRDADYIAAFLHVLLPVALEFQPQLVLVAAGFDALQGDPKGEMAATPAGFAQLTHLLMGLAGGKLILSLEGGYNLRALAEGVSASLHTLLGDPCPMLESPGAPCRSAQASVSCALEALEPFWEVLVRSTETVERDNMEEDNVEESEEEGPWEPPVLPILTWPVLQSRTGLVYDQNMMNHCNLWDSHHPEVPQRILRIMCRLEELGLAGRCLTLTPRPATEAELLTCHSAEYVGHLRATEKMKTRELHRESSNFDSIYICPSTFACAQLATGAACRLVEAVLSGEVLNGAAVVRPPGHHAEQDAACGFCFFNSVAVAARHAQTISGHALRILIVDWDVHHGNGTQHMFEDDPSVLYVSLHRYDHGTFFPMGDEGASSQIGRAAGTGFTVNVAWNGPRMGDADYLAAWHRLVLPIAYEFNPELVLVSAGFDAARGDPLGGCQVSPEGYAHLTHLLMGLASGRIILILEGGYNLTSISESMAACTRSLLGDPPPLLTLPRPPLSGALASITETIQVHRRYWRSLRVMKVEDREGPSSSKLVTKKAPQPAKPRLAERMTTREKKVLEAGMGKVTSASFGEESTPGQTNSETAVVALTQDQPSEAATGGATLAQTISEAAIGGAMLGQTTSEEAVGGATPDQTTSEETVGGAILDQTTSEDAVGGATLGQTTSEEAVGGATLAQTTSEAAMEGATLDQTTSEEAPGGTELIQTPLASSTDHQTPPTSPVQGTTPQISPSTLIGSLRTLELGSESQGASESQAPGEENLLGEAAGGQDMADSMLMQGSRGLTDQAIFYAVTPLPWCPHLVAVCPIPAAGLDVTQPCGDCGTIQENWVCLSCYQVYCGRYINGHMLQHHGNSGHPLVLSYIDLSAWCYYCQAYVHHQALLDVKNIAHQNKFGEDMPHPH
Briefly: HDAC6 Enzyme Assay. It is filed as biochemical. As to conditions: HDAC6 inhibition at a compound concentration of 0.412 μM; read-out: Percent Inhibition at 0.412 μM. How it is done:
To measure the inhibition of HDAC6 activity, purified human HDAC6 (BPS Bioscience; Cat. No. 5006) is incubated with substrate Ac-Arg-Gly-Lys(Ac)-AMC peptide (Bachem Biosciences; Cat. No. I-1925) for 1 hour at 30° C. in the presence of test compounds or vehicle DMSO control. The reaction is stopped with the HDAC inhibitor trichostatin A (Sigma; Cat. No. T8552) and the amount of Arg-Gly-Lys-AMC generated is quantitated by digestion with trypsin (Sigma; Cat. No. T1426) and subsequent measurement of the amount of AMC released using a fluorescent plate reader (Pherastar; BMG Technologies) set at Ex 340 nm and Em 460 nm. Concentration response curves are generated by calculating the fluorescence increase in test compound-treated samples relative to DMSO-treated controls, and enzyme inhibition (IC50) values are determined from those curves.

Turning to `O=C(NO)c1ccc2c(c1)CCCC2NC(=O)c1sc2ccccc2c1Cl` (centres unmarked) [Compound I-32, 3-chloro-N-{6-[(hydroxyamino)carbonyl]-1,2,3,4-tetrahydronaphthalen-1-yl}-1-benzothiophene-2-carboxamide], the inhibition at 0.412 µM came to 69%.

Take `COc1cccc2cc(C(=O)NC3CCCc4cc(C(=O)NO)ccc43)oc12` (centres unmarked) [Compound I-33, N-{6-[(hydroxyamino)carbonyl]-1,2,3,4-tetrahydronaphthalen-1-yl}-7-methoxy-1-benzofuran-2-carboxamide]: the inhibition at 0.412 µM turned out to be 62%.

For `O=C(NO)c1ccc2c(c1)CCCC2NC(=O)c1ccc(-c2ccccc2)cc1` (centres unmarked) [Compound I-34, N-{6-[(hydroxyamino)carbonyl]-1,2,3,4-tetrahydronaphthalen-1-yl}biphenyl-4-carboxamide], the inhibition at 0.412 µM is 2%.

Regarding `Cc1ccc(-c2cc(C(=O)NC3CCCc4cc(C(=O)NO)ccc43)[nH]n2)cc1` (centres unmarked) [Compound I-35, N-{6-[(hydroxyamino)carbonyl]-1,2,3,4-tetrahydronaphthalen-1-yl}-3-(4-methylphenyl)-1H-pyrazole-5-carboxamide], the inhibition at 0.412 µM is 74%.

On to `COc1ccc2c(CC(=O)NC3CCCc4cc(C(=O)NO)ccc43)coc2c1` (centres unmarked) [Compound I-36, N-hydroxy-5-{[(6-methoxy-1-benzofuran-3-yl)acetyl]amino}-5,6,7,8-tetrahydronaphthalene-2-carboxamide], for which the inhibition at 0.412 µM worked out at 26%.

In the case of `Cc1oc(S(=O)(=O)N2CCCCC2)cc1C(=O)NC1CCCc2cc(C(=O)NO)ccc21` (centres unmarked) [Compound I-37, N-{6-[(hydroxyamino)carbonyl]-1,2,3,4-tetrahydronaphthalen-1-yl}-2-methyl-5-(piperidin-1-ylsulfonyl)-3-furamide], the inhibition at 0.412 µM came out at 36%.

Take `Cc1onc(-c2ccccc2Cl)c1C(=O)NC1CCCc2cc(C(=O)NO)ccc21` (centres unmarked) [Compound I-38, 3-(2-chlorophenyl)-N-{6-[(hydroxyamino)carbonyl]-1,2,3,4-tetrahydronaphthalen-1-yl}-5-methylisoxazole-4-carboxamide]: the inhibition at 0.412 µM is 18%.

For `Cc1ccc2[nH]c(C(=O)NC3CCCc4cc(C(=O)NO)ccc43)cc2c1` (centres unmarked) [Compound I-39, N-{6-[(hydroxyamino)carbonyl]-1,2,3,4-tetrahydronaphthalen-1-yl}-5-methyl-1H-indole-2-carboxamide], the inhibition at 0.412 µM is 60%.

For the molecule `O=C(NO)c1ccc2c(c1)CCCC2NC(=O)c1cc2cc(Cl)ccc2o1` (centres unmarked) [Compound I-40, 5-chloro-N-{6-[(hydroxyamino)carbonyl]-1,2,3,4-tetrahydronaphthalen-1-yl}-1-benzofuran-2-carboxamide], the inhibition at 0.412 µM is 48%.

In the case of `COc1ccc(C(C(=O)NC2CCCc3cc(C(=O)NO)ccc32)c2ccccc2)cc1` (centres unmarked) [Compound I-41, N-hydroxy-5-{[(4-methoxyphenyl)(phenyl)acetyl]amino}-5,6,7,8-tetrahydronaphthalene-2-carboxamide], the inhibition at 0.412 µM came out at 23%.

Regarding `O=C(NO)c1ccc2c(c1)CCCC2NC(=O)c1cc(-c2ccc(F)cc2)n[nH]1` (centres unmarked) [Compound I-43, 3-(4-fluorophenyl)-N-{6-[(hydroxyamino)carbonyl]-1,2,3,4-tetrahydronaphthalen-1-yl}-1H-pyrazole-5-carboxamide], the inhibition at 0.412 µM is 71%.

`O=C(NO)c1ccc2c(c1)CCCC2NC(=O)c1cc2ccccc2o1` (centres unmarked) [Compound I-45, N-{6-[(hydroxyamino)carbonyl]-1,2,3,4-tetrahydronaphthalen-1-yl}-1-benzofuran-2-carboxamide]: the inhibition at 0.412 µM stood at 47%.

`O=C(NO)c1ccc2c(c1)CCCC2NC(=O)C1(c2ccccc2)CCCC1` (centres unmarked) [Compound I-46, N-hydroxy-5-{[(1-phenylcyclopentyl)carbonyl]amino}-5,6,7,8-tetrahydronaphthalene-2-carboxamide]: the inhibition at 0.412 µM was found to be 22%.

Consider `Cc1c(C(=O)NC2CCc3cc(C(=O)NO)ccc3C2)cc(-c2ccccc2)n1CCCN1CCOCC1` (centres unmarked) [Compound I-47, N-{6-[(hydroxyamino)carbonyl]-1,2,3,4-tetrahydronaphthalen-2-yl}-2-methyl-1-(3-morpholin-4-ylpropyl)-5-phenyl-1H-pyrrole-3-carboxamide], for which the inhibition at 0.412 µM stood at 82%.

In the case of `Cc1cc(C(=O)NC2CCc3cc(C(=O)NO)ccc3C2)c(C)n1Cc1cccs1` (centres unmarked) [Compound I-48, N-{6-[(hydroxyamino)carbonyl]-1,2,3,4-tetrahydronaphthalen-2-yl}-2,5-dimethyl-1-(2-thienylmethyl)-1H-pyrrole-3-carboxamide], the inhibition at 0.412 µM was determined as 62%.

Consider `O=C(NO)c1ccc2c(c1)CCC(NC(=O)C1CCCCC1)C2` (centres unmarked) [Compound I-49, 6-[(cyclohexylcarbonyl)amino]-N-hydroxy-5,6,7,8-tetrahydronaphthalene-2-carboxamide], for which the inhibition at 0.412 µM was found to be 56%.

For `Cc1cc(C(=O)NC2CCc3cc(C(=O)NO)ccc3C2)c(C)o1` (centres unmarked) [Compound I-50, N-{6-[(hydroxyamino)carbonyl]-1,2,3,4-tetrahydronaphthalen-2-yl}-2,5-dimethyl-3-furamide], the inhibition at 0.412 µM worked out at 70%.

`O=C(NO)c1ccc2c(c1)CCC(NC(=O)c1csc3ccccc13)C2` (centres unmarked) [Compound I-52, N-{6-[(hydroxyamino)carbonyl]-1,2,3,4-tetrahydronaphthalen-2-yl}-1-benzothiophene-3-carboxamide]: the inhibition at 0.412 µM was 80%.

In the case of `O=C(NO)c1ccc2c(c1)CCC(NC(=O)c1ccc3occc3c1)C2` (centres unmarked) [Compound I-54, N-{6-[(hydroxyamino)carbonyl]-1,2,3,4-tetrahydronaphthalen-2-yl}-1-benzofuran-5-carboxamide], the inhibition at 0.412 µM was determined as 87%.

As to `Cc1nc2ccccn2c1C(=O)NC1CCc2cc(C(=O)NO)ccc2C1` (centres unmarked) [Compound I-55, N-{6-[(hydroxyamino)carbonyl]-1,2,3,4-tetrahydronaphthalen-2-yl}-2-methylimidazo[1,2-a]pyridine-3-carboxamide], the inhibition at 0.412 µM came out at 78%.

Consider `O=C(NO)c1ccc2c(c1)CCC(NC(=O)C13CC4CC(CC(C4)C1)C3)C2` (centres unmarked) [Compound I-57, N-{6-[(hydroxyamino)carbonyl]-1,2,3,4-tetrahydronaphthalen-2-yl}adamantane-1-carboxamide], for which the inhibition at 0.412 µM was 59%.

On to `O=C(NO)c1ccc2c(c1)CCC(NC(=O)c1cnn(-c3ccccc3)c1)C2` (centres unmarked) [Compound I-58, N-{6-[(hydroxyamino)carbonyl]-1,2,3,4-tetrahydronaphthalen-2-yl}-1-phenyl-1H-pyrazole-4-carboxamide], for which the inhibition at 0.412 µM stood at 85%.

On to `Cc1oc(-c2ccccc2)cc1C(=O)NC1CCc2cc(C(=O)NO)ccc2C1` (centres unmarked) [Compound I-59, N-{6-[(hydroxyamino)carbonyl]-1,2,3,4-tetrahydronaphthalen-2-yl}-2-methyl-5-phenyl-3-furamide], for which the inhibition at 0.412 µM was determined as 56%.

On to `COc1ccc(C(=O)NC2CCc3cc(C(=O)NO)ccc3C2)cc1` (centres unmarked) [Compound I-61, N-hydroxy-6-[(4-methoxybenzoyl)amino]-5,6,7,8-tetrahydronaphthalene-2-carboxamide], for which the inhibition at 0.412 µM came to 84%.

With `Cn1cccc1C(=O)NC1CCc2cc(C(=O)NO)ccc2C1` (centres unmarked) [Compound I-62, N-(6-(hydroxycarbamoyl)-1,2,3,4-tetrahydronaphthalen-2-yl)-1-methyl-1H-pyrrole-2-carboxamide], the inhibition at 0.412 µM was 75%.

Turning to `O=C(NO)c1ccc2c(c1)CCC[C@H]2NC(=O)c1cc2cc(Cl)ccc2o1` [Compound I-63, 5-chloro-N-{(1R)-6-[(hydroxyamino)carbonyl]-1,2,3,4-tetrahydronaphthalen-1-yl}-1-benzofuran-2-carboxamide], the inhibition at 0.412 µM stood at 18%.
